Here are results for one compound from patent US20080226596A1, “Therapeutic compositions and methods useful in treating hepatitis” (priority 2006, published 2008).

Entries after “also recorded” stand apart in the source; their conditions may differ.

In data set [1] the test system is NB4 cells. Nature of the data set: NB4 differentiation, NBT reduction. Type of data set: cell-based, human. The protocol: Differentiation of AML cell lines was assessed by their ability to produce superoxide as measured by reduction of NBT to formazan and by analysis of expression of CD11b surface marker by flow cytometry. For NBT reduction, each cell suspension was mixed with an equal volume of solution containing 1 mg/ml of NBT (Sigma) and 2.5 µg/ml of TPA for 30 minutes at 37° C. After incubation, cells containing the purple formazan deposits and cells devoid of NBT-reducing activity (white cells) in each sample were determined by counting 200 cells under microscope. Data is expressed as a percentage based on the following ratio: purple cells/purple+white cells. For analysis of cell surface antigens, cells were exposed to phycoerythrin (PE)-conjugated murine anti-human CD11b (DAKO Corp., Carpinteria, Calif.). Analysis of fluorescence was performed on a FACScan flow cytometer (Beckton Dickinson, Mountain View, Calif.).

In data set [2] the test system is NB4 cells. Nature of the data set: NB4 proliferation, MTT assay. Type of data set: cell-based, human. The note with it: 12.5-400 μg/ml. The protocol:
The NB4 cell line (Lanotte et al., Blood 77, 1080 (1991)) was a gift from Dr. Dan Lindner of the Cleveland Clinic Foundation. […] and U937 cell lines were purchased from American Type Culture Collection (Rockville, Md.). These human […] cell lines were maintained in RPMI 1640 medium supplemented with 10% fetal calf serum (FCS). For cell proliferation assays, cells were cultured at 37° C. in 10% FCS medium containing various amounts of sodium stibogluconate for 6 days. The cell numbers in the cultures were determined by an MTT assay as described previously in Mosmann, J. Immunol. Methods 65, 55 (1983).

Data set [3] has as its system U266 cells. Nature of the data set: U266 multiple myeloma cell growth, MTT assay. Type of data set: cell-based, human. The following applies: day six cultures. The protocol: (§1) For cell proliferation assays, cells were grown in 10% FCS culture medium containing various amounts of IFNs and/or sodium stibogluconate in 96 well plates and cultured at 37° C. for 3 or 6 days as indicated. The numbers of viable cells in proliferation assays were determined by MTT assays as described in Phatak et al., J. Immunol. 167, 3391 (2001).

The subject of data set [4] is DU145 cells. Nature of the data set: DU145 prostate cancer cell growth, MTT assay. Type of data set: cell-based, human. The following applies: single agent, 50-100 μg/ml, day 6. The protocol:
as §1
(§2) NIH3T3 (Yi, et al., Blood 85, 87 (1995)), WM9 (Forsberg, et al., Proc. Nat. Acad Sci. USA 90, 393 (1993)), DU145 (Mickey, et al., Cancer Res. 37, 4049 (1977)), LoVo (Drewinko, et al., Cancer Res. 36, 467 (1976)), HEY (Buick, et al., Cancer Res. 45, 3668 (1985)), U251 (Yoshida, et al., Cancer 50, 410 (1982)), A549 (Giard, et al., J. Natl. Cancer Inst. 51, 1417 (1973)) and SK-N-SH (Helson, et al., Cancer Res. 35, 2594 (1975)) cell lines have been described and were cultured in RPMI 1640 supplemented with 10% fetal calf serum (FCS). For measurement of sodium stibogluconate effects on cell growth in vitro, cells were cultured in the absence (−) or presence (+) of various amounts of sodium stibogluconate for 6 days with viable cells quantified by MTT assays (Mosmann, J. Immunol. Methods 65, 55 (1983)). Percentages of growth inhibition by sodium stibogluconate were calculated (.+−.x

Data set [5] deals with WM35 cells. Nature of the data set: WM35 melanoma cell growth. In kind it is cell-based, human. The method, then:
as §1

The test system of data set [6] is C42 cells. Nature of the data set: C42 prostate cancer cell growth. In kind it is cell-based, human. The method, then:
as §1

For data set [7], the system named is Stat1 tyrosine phosphorylation. Nature of the data set: IFN-alpha-induced Stat1 tyrosine phosphorylation in human cancer cell lines. Type of data set: cell-based. The method, then: Cell lysates were prepared by lysing cells in cold lysis buffer for 30 min and cleared by centrifuging at 14,000 rpm at 4° C. for 15 min. For SDS-PAGE, cell lysates were mixed with equal volume of 2×SDS-PAGE sample buffer, heated at 90° C. for 5 min and separated in 10% SDS-PAGE gels. Cellular proteins in SDS-PAGE gels were transferred to nitrocellulose membrane (Schleicher & Schuell, Keene, N.H.), blocked in 5% milk, probed with antibodies and detected by using an enhanced chemiluminescence kit (ECL, Amersham, Arlington Heights, Ill.).

Data set [8] relates to Renca tumors. Nature of the data set: Renca tumors in Balb/c mice. The note with it: end of treatment; listed as SSG. Type of data set: in vivo. The method, then: Balb/c and athymic nude Balb/c mice (10 weeks old, female, Taconic Farms, Germantown, N.Y.) were inoculated (s.c.) at the flanks with Renca cells (10^6 cells/site). […] The dose of SSG was similar to the effective daily dose of the drug for the treatment of murine leishmaniasis (Murray, H. W., J. D. Berman, and S. D. Wright. 1988. Immunochemotherapy for intracellular Leishmania donovani infection: gamma interferon plus pentavalent antimony. J Infect Dis 157:973). Tumor volume was measured during the study period and calculated using the formula for a prolate spheroid (V=4/3×a2b) (Lindner, D. J., E. C. Borden, and D. V. Kalvakolanu. 1997. Synergistic antitumor effects of a combination of interferons and retinoic acid on human tumor cells in vitro and in vivo. Clin Cancer Res 3:931). Student's t test was used for assessing the significance of tumor volume differences among differential treatment groups. Mouse viability (daily) and body weights (weekly) were also recorded during the study period. At the end of the study, Renca tumors and major internal organs (heart, kidney, liver, lung and spleen) were harvested for histology and immunohistochemistry analysis.

Data set [9] concerns A549 cells. Nature of the data set: A549 lung cancer cell growth, MTT assay. In kind it is cell-based, human. The following applies: 100 μg/ml, day 6. The protocol:
as §2

For data set [10], the system named is U251 cells. Nature of the data set: U251 glioma cell growth, MTT assay. Type of data set: cell-based, human. The note with it: 100 μg/ml, day 6. The protocol:
as §2

Data set [11] deals with DU145R cells. Nature of the data set: DU145R cell growth, MTT assay. Type of data set: cell-based, human. The note with it: day 6, compared with parental DU145. The protocol:
DU145 cells were cultured in the presence of sodium stibogluconate (100 µg/ml) in 48 well plates for 3 weeks. Cells from a well containing a single colony were transferred to flasks, cultured in sodium stibogluconate-free medium for 3 weeks and used as DU145R cells for further characterization. Growth of DU145R cells in the absence or presence of sodium stibogluconate in day 6 culture was determined by MTT assays. cDNAs of the coding region of PRLs were derived by RT-PCR from DU145 and DU145R cells and sequenced using primers described below.

Turning to `O.O.O.O.O.O.O.O.O.O=C([O-])[C@@H]1[O][Sb]2([O-])([O][Sb]34([OH])[O][C@H]([C@H](O)CO)[C@H]([O]3)[C@H](C(=O)[O-])[O]4)[O][C@H]([C@H](O)CO)[C@@H]1[O]2.[Na+].[Na+].[Na+]` [sodium stibogluconate], the “NB4 differentiation induction” value in data set [1] (10 to 400 μg/ml, day 3 or day 6) is listed as “differentiation induction activity at all of the dosages”. Besides, in data set [1] (6 days with drug (10 or 100 μg/ml), washed, 6 days without), the “reversal of NB4 differentiation after drug removal” value was “not reversed”. For the same compound, in [2], the “proliferation of NB4 cells” value is “markedly inhibited”. For the same compound, the “growth inhibition of U266 cells” value in data set [3] was “substantial growth inhibition activity”. In addition, the “killing of DU145 cells” value in data set [4] is “killed all cells; also recorded: complete or near complete killing; also recorded: near-complete cell killing”. The “effect on WM35 cells” value in data set [5] is given as “minimally affected”. In [6], the “effect on C42 cells” value is listed as “highly resistant”. Also, the “Stat1 tyrosine phosphorylation by drug alone” value in [7] (DR cells, absence of IFN-alpha) is “failed to induce Stat1 tyrosine phosphorylation”. For the same compound, the “IFN-alpha-induced Stat1 tyrosine phosphorylation” value in data set [7] (DU145 cells, 5 hours post-stimulation) is recorded as “Enhanced”; in [7] (WM9 cells, 5 hours post-stimulation), “Enhanced”; in [7] (WM35 cells) it was “failed to enhance”; in data set [7] (WiT49-N1 cells), “failed to enhance”. For the same compound, the “tolerance/survival of treated Balb/c mice” value in data set [8] was “tolerated; also recorded: all mice in the treatment group survived”. Also, the “killing of A549 cells” value in data set [9] was “near-complete cell killing”. The “killing of U251 cells” value in data set [10] was “near-complete cell killing”. Further, the “growth of DU145R cells with sodium stibogluconate” value in data set [11] was “growth resistance to sodium stibogluconate”.
